{"source": "paper PMC7070685", "about": "“Efficient Biocatalytic Synthesis of Dihalogenated Purine Nucleoside Analogues Applying Thermodynamic Calculations” (Molecules, 2020)", "key": {"HL-60 cells": {"test_system": "HL-60 cells", "experiment": "XTT cell proliferation assay, HL-60", "assay_type": "cell-based", "conditions": "Homo sapiens; leukemia cell line HL-60, XTT assay after 24 h; read-out: IC50, inhibition of growth of HL-60 cells", "experimental": "(§1) HEK293 cells were cultured in […] Dulbecco’s modified Eagle’s medium (Biowest) containing 10% fetal bovine serum, 2 mM glutamine, non-essential amino acids, 4.5 mg mL^−1 glucose, and the antibiotics penicillin and streptomycin. HL-60 cells were cultured in RPMI 1640 w/o L-Glutamine supplemented with 10% fetal bovine serum, 2 mM glutamine, and the antibiotics penicillin and streptomycin. Cells were grown at 37 °C in a humidified atmosphere with 5% CO2.\n(§2) Cytotoxicity was measured by the XTT assay at 450 nm as described by the manufacturer (Roche Diagnostics, Basel, Switzerland). Phosphate-buffered saline was used as negative control. For HL-60 and HEK293 cells, 1.2 × 10^5 cells in growth media were transferred to each well of a 96-well flat-bottom plate. Subsequently, modified nucleosides were added in varying concentrations. XTT assay was performed after 24 h for HL-60 and HEK293 cells, as described previously. At least three replicates for each nucleoside concentration were performed. All experiments were conducted for a minimum of three independent experiments."}, "HEK293 cells": {"test_system": "HEK293 cells", "experiment": "XTT cell proliferation assay, control cell line HEK293", "assay_type": "cell-based", "conditions": "control cell line HEK293, XTT assay after 24 h", "experimental": "as §1, §2"}}}
{"smiles": "Nc1nc(Cl)nc2c1ncn2[C@H]1C[C@H](O)[C@@H](CO)O1", "note": "[cladribine]", "values": [{"measurement": "IC50", "setting": "HL-60 cells", "value": 220, "unit": "nM"}, {"measurement": "inhibition of growth of the control cell line HEK293", "setting": "HEK293 cells", "value": "No unspecific growth inhibition"}]}
